From patent US8258160B2, “SCD1 inhibitors triazole and tetrazole compounds” (Novartis AG, priority 2006, dated 2012)

What was measured:
[1] = target: T1, stearoyl-CoA desaturase (SCD1) (Mus musculus, UniProt P13516); assay: SCD microsomal assay: release of 3H2O from [9,10-3H]stearoyl-CoA in mouse liver microsomes; type: biochemical; settings: 15 min incubation, 25° C.
T1 construct: Reactions are started by adding 50 μL of microsomes (1.25 mg/mL); from tissue; host or cells: liver microsomes of male ICR outbred mice on a high-carbohydrate, low-fat diet
T1 sequence (P13516 1-355): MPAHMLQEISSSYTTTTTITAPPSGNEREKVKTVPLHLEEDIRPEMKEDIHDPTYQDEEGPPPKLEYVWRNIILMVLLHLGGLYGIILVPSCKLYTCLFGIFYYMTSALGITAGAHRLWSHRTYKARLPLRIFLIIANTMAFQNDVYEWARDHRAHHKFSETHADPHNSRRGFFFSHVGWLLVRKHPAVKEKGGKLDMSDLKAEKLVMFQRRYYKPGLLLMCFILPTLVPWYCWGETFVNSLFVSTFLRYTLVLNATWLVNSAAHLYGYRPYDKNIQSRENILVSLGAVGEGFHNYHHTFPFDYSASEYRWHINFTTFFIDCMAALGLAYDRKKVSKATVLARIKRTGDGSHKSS
From the text: The identification of compounds of the invention as SCD inhibitors was readily accomplished using the SCD enzyme and microsomal assay procedure described in Shanklin J. and Summerville C., Proc. Natl. Acad. Sci. USA (1991), Vol. 88, pp. 2510-2514.
The identification of compounds of the invention as SCD inhibitors was readily accomplished using the SCD microsomal assay procedure described in Shanklin J. and Summerville C., Proc. Natl. Acad. Sci. USA (1991), Vol. 88, pp. 2510-2514.
Male ICR outbread mice, on a high-carbohydrate, low fat diet, under light halothane (15% in mineral oil) anesthesia are sacrificed by exsanguination during periods of high enzyme activity. Livers are immediately rinsed with cold 0.9% NaCl solution, weighed and minced with scissors. All procedures are performed at 4° C. unless specified otherwise. Livers are homogenized in a solution (1/3 w/v) containing 0.25 M sucrose, 62 mM potassium phosphate buffer (pH 7.0), 0.15 M KCl, 15 mM N-acetylcysteine, 5 mM MgCl2, and 0.1 mM EDTA using 4 strokes of a Potter-Elvehjem tissue homogenizer. The homogenate is centrifuged at 10,400×g for 20 min to eliminate mitochondria and cellular debris. The supernatant is filtered through a 3-layer cheesecloth and centrifuged at 105,000×g for 60 min. The microsomal pellet is gently resuspended in the same homogenization solution with a small glass/teflon homogenizer and stored at −70° C. The absence of mitochondrial contamination is enzymatically assessed. The protein concentration is measured using bovine serum albumin as the standard.
Desaturase activity is measured as the release of ^3H2O from [9,10-^3H]stearoyl-CoA. Reactions per assay point conditions are as follows: 2 μL 1.5 mM stearoyl-CoA, 0.25 μL 1 mCi/mL ^3H stearoyl CoA, 10 μL 20 mM NADH, 36.75 μL 0.1 M PK buffer (K2HPO4/NaH2PO4, pH 7.2). The test compound or control solution is added in a 1 μL volume. Reactions are started by adding 50 μL of microsomes (1.25 mg/mL). The plates are mixed and after 15 min incubation on a heating block (25° C.), the reactions are stopped by the addition of 10 μL 60% PCA. An aliquot of 100 μL is then transferred to a filter plate pretreated with charcoal and the plate centrifuged at 4000 rpm for 1 min. The flow through containing the ^3H2O released by the SCD1 desaturation reaction is added to scintillation fluid and the radioactivity measured in a Packard TopCount. The data is analysed to identify the IC50 for test compounds and reference compounds. […] The activity was defined in terms of % SCD enzyme activity remaining at the desired concentration of the test compound or as the IC50 concentration. The IC50 (affinity) of the example compounds toward the stearoyl-CoA desaturase is comprised between around 20 μM and 0.0001 μM or between around 5 μM and 0.0001 μM or between around 1 μM and 0.0001 μM.

Cc1nc(-c2nnn(Cc3ccc(F)cc3)n2)sc1C(=O)NCc1cccnc1 (single isomer, unassigned) [Example 7.1, 2-(2-(4-Fluorobenzyl)-2H-tetrazol-5-yl)-4-methyl-N-(pyridin-3-ylmethyl)thiazole-5-carboxamide]
IC50 [1]: 510 nM
melting point: 148 to 149 °C

Cc1nc(-c2nnnn2Cc2ccc(C(F)(F)F)cc2)sc1C(=O)NCc1cccnc1 (single isomer, unassigned) [Example 7.2, 4-Methyl-N-(pyridin-3-ylmethyl)-2-(1-(4-(trifluoromethyl)benzyl)-1H-tetrazol-5-yl)thiazole-5-carboxamide]
IC50 [1]: 160 nM
melting point: 175 to 176 °C

Cc1nc(-c2nnn(CC3CC3)n2)sc1C(=O)NCc1cccnc1 (single isomer, unassigned) [Example 7.3, 2-(2-(Cyclopropylmethyl)-2H-tetrazol-5-yl)-4-methyl-N-(pyridin-3-ylmethyl)thiazole-5-carboxamide]
IC50 [1]: 310 nM
melting point: 149 to 150 °C

Cc1nc(-c2cn(CCc3ccc(F)cc3)nn2)sc1C(=O)NCc1ccccc1 [Example 1, N-benzyl-2-(1-(4-fluorophenethyl)-1H-1,2,3-triazol-4-yl)-4-methylthiazole-5-carboxamide]
IC50 [1]: 20 nM
melting point: 181 to 182 °C

Cc1nc(-c2cn(Cc3ccccc3)nn2)sc1C(=O)NCc1ccccc1 [Example 1.1, N-benzyl-2-(1-benzyl-1H-1,2,3-triazol-4-yl)-4-methylthiazole-5-carboxamide]
IC50 [1]: 30 nM
melting point: 108 to 109 °C

Cc1nc(-n2cc(-c3ccccn3)nn2)sc1C(=O)NCc1ccccc1 [Example 10.6, N-benzyl-4-methyl-2-(4-(pyridin-2-yl)-1H-1,2,3-triazol-1-yl)thiazole-5-carboxamide]
melting point: 184 to 187 °C

Cc1nc(-n2cc(C(O)c3ccccc3)nn2)sc1C(=O)NCc1ccccc1 (centres unmarked) [Example 10.7, N-benzyl-2-(4-(hydroxy(phenyl)methyl)-1H-1,2,3-triazol-1-yl)-4-methylthiazole-5-carboxamide]
melting point: 143 to 146 °C

Cc1nc(-n2cc(-c3ccc(OCc4ccccc4)cc3)nn2)sc1C(=O)NCc1ccccc1 [Example 10.8, N-benzyl-2-(4-(4-(benzyloxy)phenyl)-1H-1,2,3-triazol-1-yl)-4-methylthiazole-5-carboxamide]
melting point: 237 to 240 °C

Cc1nc(-n2cc(-c3cccnc3)nn2)sc1C(=O)NCc1ccccc1 [Example 10.9, N-benzyl-4-methyl-2-(4-(pyridin-3-yl)-1H-1,2,3-triazol-1-yl)thiazole-5-carboxamide]
melting point: 117 to 119 °C

Cc1nc(-n2cc(CNc3ccccc3)nn2)sc1C(=O)NCc1ccccc1 [Example 10.10, N-benzyl-4-methyl-2-(4-((phenylamino)methyl)-1H-1,2,3-triazol-1-yl)thiazole-5-carboxamide]
melting point: 159 to 162 °C

Cc1nc(-n2cc(-c3ccsc3)nn2)sc1C(=O)NCc1ccccc1 [Example 10.11, N-benzyl-4-methyl-2-(4-(thiophen-3-yl)-1H-1,2,3-triazol-1-yl)thiazole-5-carboxamide]
melting point: 123 to 126 °C

Cc1nc(-n2cc([C@H](O)c3ccccc3)nn2)sc1C(=O)NCc1ccccc1 [Example 10.12, (R)—N-benzyl-2-(4-(hydroxy(phenyl)methyl)-1H-1,2,3-triazol-1-yl)-4-methylthiazole-5-carboxamide]
melting point: 146 to 149 °C

Cc1nc(-n2cc(-c3ccc(F)cc3)nn2)sc1C(=O)NCc1ccccc1 [Example 10.13, N-benzyl-2-(4-(4-fluorophenyl)-1H-1,2,3-triazol-1-yl)-4-methylthiazole-5-carboxamide]
melting point: 203 to 205 °C

Cc1nc(-n2cc(C(=O)c3ccccc3)nn2)sc1C(=O)NCc1ccccc1 [Example 11, 2-(4-benzoyl-1H-1,2,3-triazol-1-yl)-N-benzyl-4-methylthiazole-5-carboxamide]
melting point: 176 to 178 °C

Cc1nc(-n2cc(CCCc3ccccc3)nn2)sc1C(=O)NCc1cccnc1 [Example 14, 4-methyl-2-(4-(3-phenylpropyl)-1H-1,2,3-triazol-1-yl)-N-(pyridin-3-ylmethyl)thiazole-5-carboxamide]
melting point: 108 to 110 °C

Cc1nc(-n2cc(CCCc3ccccc3)nn2)sc1C(=O)NCc1ccc(F)c(F)c1 [Example 14.1, N-(3,4-difluorobenzyl)-4-methyl-2-(4-(3-phenylpropyl)-1H-1,2,3-triazol-1-yl)thiazole-5-carboxamide]
melting point: 81 to 84 °C

Cc1nc(-n2cc(CCc3ccccc3)nn2)sc1C(=O)NCc1cccnc1 [Example 14.2, 4-methyl-2-(4-phenethyl-1H-1,2,3-triazol-1-yl)-N-(pyridin-3-ylmethyl)thiazole-5-carboxamide]
melting point: 114 to 116 °C

Cc1nc(-n2cc(C(=O)NCc3ccccc3)nn2)sc1C(=O)NCc1ccccc1 [Example 18, N-benzyl-2-(4-(benzylcarbamoyl)-1H-1,2,3-triazol-1-yl)-4-methylthiazole-5-carboxamide]
melting point: 178 to 180 °C

Cc1nc(-n2nnc(C(=O)NCc3ccccc3)c2C)sc1C(=O)NCc1ccccc1 [Example 18.2, N-benzyl-2-(4-(benzylcarbamoyl)-5-methyl-1H-1,2,3-triazol-1-yl)-4-methylthiazole-5-carboxamide]
melting point: 183 to 186 °C

Cc1cc(-n2nnc(-c3ccccc3)n2)sc1C(=O)NCc1ccccc1 [Example 21, N-benzyl-3-methyl-5-(5-phenyl-2H-tetrazol-2-yl)thiophene-2-carboxamide]
melting point: 155 to 158 °C

Cc1cc(-c2ncn(Cc3ccc(F)cc3)n2)sc1C(=O)NCc1ccccc1 [Example 23, N-benzyl-5-(1-(4-fluorobenzyl)-1H-1,2,4-triazol-3-yl)-3-methylthiophene-2-carboxamide]
melting point: 128 to 130 °C

Cc1cc(-c2ncn(Cc3ccc(F)cc3)n2)sc1C(=O)NCc1cccnc1 [Example 23.1, 5-(1-(4-fluorobenzyl)-1H-1,2,4-triazol-3-yl)-3-methyl-N-(pyridin-3-ylmethyl)thiophene-2-carboxamide]
melting point: 154 to 155 °C

Cc1nc(-c2cc(CCc3ccccc3)no2)sc1C(=O)NCc1ccccc1 [Example 27.1, N-benzyl-4-methyl-2-(3-phenethylisoxazol-5-yl)thiazole-5-carboxamide]
melting point: 114 to 115 °C

Cc1nc(-c2cn(CC(F)(F)c3ccccc3)nn2)sc1C(=O)NCc1cccnc1 [Example 30, 2-(1-(2,2-difluoro-2-phenylethyl)-1H-1,2,3-triazol-4-yl)-4-methyl-N-(pyridin-3-ylmethyl)thiazole-5-carboxamide]
melting point: 150 to 151 °C

Cc1nc(-n2[nH]c(C)c(Cc3ccc(Cl)cc3)c2=O)sc1C(=O)NCc1cccnc1 [Example 33, 2-(4-(4-chlorobenzyl)-3-methyl-5-oxo-2,5-dihydro-1H-pyrazol-1-yl)-4-methyl-N-(pyridin-3-ylmethyl)thiazole-5-carboxamide]
melting point: 215 to 217 °C

Cc1nc(-c2noc(Cc3ccccc3)n2)sc1C(=O)NCc1ccccc1 [Example 34, N-benzyl-2-(5-benzyl-1,2,4-oxadiazol-3-yl)-4-methylthiazole-5-carboxamide]
melting point: 124 to 125 °C

Cc1nc(-c2cnc(Cc3ccccc3)o2)sc1C(=O)NCc1ccccc1 [Example 36, N-benzyl-2-(2-benzyloxazol-5-yl)-4-methylthiazole-5-carboxamide]
melting point: 141 to 142 °C
